Data reported in ChEMBL document CHEMBL5154863, “Design and synthesis of quinolinium-based derivatives targeting FtsZ for antibacterial evaluation and mechanistic study” (Eur J Med Chem, 2022).
Activity calls are given as the source filed them. The rule behind the calls is not given here.

What was measured:
[1] = biological target: T1, Cell division protein FtsZ (Staphylococcus aureus) (UniProt P0A031); assay: Binding affinity to Staphylococcus aureus FtsZ assessed as decrease in beta turn structure at 8 ug/ml incubated for 30 mins by circular dichroism method (reference value: 17.4 %); set-up: scale not given: the % may be the effect or the level left; conditions: dose 8.0 µg/ml
T1 sequence (whole entry): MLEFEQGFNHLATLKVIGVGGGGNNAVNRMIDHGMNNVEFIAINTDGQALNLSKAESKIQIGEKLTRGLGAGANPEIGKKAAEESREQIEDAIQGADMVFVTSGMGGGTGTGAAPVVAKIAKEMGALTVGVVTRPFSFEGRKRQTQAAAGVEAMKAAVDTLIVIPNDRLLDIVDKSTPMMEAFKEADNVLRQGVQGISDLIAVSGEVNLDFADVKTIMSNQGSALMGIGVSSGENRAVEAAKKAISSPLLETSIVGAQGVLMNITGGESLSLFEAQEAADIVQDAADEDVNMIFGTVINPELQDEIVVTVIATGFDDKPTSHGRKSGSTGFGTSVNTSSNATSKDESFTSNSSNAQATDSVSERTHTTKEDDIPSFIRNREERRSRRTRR

Escherichia coli [2] = assay: Antibacterial activity against Escherichia coli ATCC 25922 assessed as inhibition of bacterial growth incubated for 20 to 24 hrs by broth micro dilution method; format: functional; conditions: time 20-24 hrs
Staphylococcus aureus [3] = assay: Antibacterial activity against Staphylococcus aureus ATCC 29213 assessed as assessed as reduction in viable bacterial count upto 8 times MIC measured after 8 hrs by time-kill kinetics assay; format: functional
Staphylococcus aureus [4] = assay: Antibacterial activity against Staphylococcus aureus ATCC 29213 assessed reduction in viable bacterial count upto 4 times MIC measured after 8 hrs by time-kill kinetics assay; format: functional
Enterococcus faecium = assay: Antibacterial activity against Enterococcus faecium ATCC 49624 assessed as inhibition of bacterial growth incubated for 20 to 24 hrs by broth micro dilution method; format: functional; conditions: time 20-24 hrs
[5] = biological target: T2, Cell division protein FtsZ (Staphylococcus aureus, UniProt P0A031); assay: Binding affinity to Staphylococcus aureus FtsZ assessed as dissociation constant by isothermal titration calorimetry
T2 sequence (P0A031 whole entry): T1 sequence (whole entry)

[6] = Ratio of MBC for bactericidal activity against Staphylococcus aureus ATCC 29213 to MIC for antibacterial activity against Staphylococcus aureus ATCC 29213; format: functional
[7] = biological target: T1, Cell division protein FtsZ (Staphylococcus aureus); assay: Binding affinity to Staphylococcus aureus FtsZ assessed as decrease in random coil structure at 8 ug/ml incubated for 30 mins by circular dichroism method (reference value: 34.5 %); set-up: scale not given: the % may be the effect or the level left; conditions: dose 8.0 µg/ml
[8] = biological target: T1, Cell division protein FtsZ (Staphylococcus aureus); assay: Binding affinity to Staphylococcus aureus FtsZ assessed as increase in alpha helix structure at 8 ug/ml incubated for 30 mins by circular dichroism method (reference value: 30.5 %); conditions: dose 8.0 µg/ml
Acinetobacter baumannii = assay: Antibacterial activity against multi-drug resistant Acinetobacter baumannii ATCC 19606 assessed as inhibition of bacterial growth incubated for 20 to 24 hrs by broth micro dilution method; format: functional; conditions: time 20-24 hrs
[9] = Cytotoxicity against human HK-2 cells incubated for 48 hrs by MTT assay; format: toxicity, cell-based
Staphylococcus aureus [10] = assay: Synergistic antibacterial activity against methicillin-resistant Staphylococcus aureus ATCC BAA41 assessed as inhibition of bacterial growth incubated for 24 hrs in presence of methicillin by checker board assay; format: functional
Enterococcus faecalis = assay: Antibacterial activity against Enterococcus faecalis ATCC 29212 assessed as inhibition of bacterial growth incubated for 20 to 24 hrs by broth micro dilution method; format: functional; conditions: time 20-24 hrs
Pseudomonas aeruginosa = assay: Antibacterial activity against […] Pseudomonas aeruginosa ATCC 27853 assessed as inhibition of bacterial growth incubated for 20 to 24 hrs by broth micro dilution method; format: functional; conditions: time 20-24 hrs
Bacillus subtilis [11] = assay: Bactericidal activity against Bacillus subtilis CMCC (B) 63501 assessed as inhibition of bacterial growth incubated for 24 hrs by resazurin dye based microtiter plate assay; format: functional
[12] = biological target: T1, Cell division protein FtsZ (Staphylococcus aureus); assay: Binding affinity to Staphylococcus aureus FtsZ assessed as decrease in other structure at 8 ug/ml for 30 mins by circular dichroism method (reference value: 34.5 %); set-up: scale not given: the % may be the effect or the level left; conditions: dose 8.0 µg/ml
Staphylococcus aureus [13] = assay: Antibacterial activity against methicillin-resistant Staphylococcus aureus ATCC 33592 assessed as inhibition of bacterial growth incubated for 20 to 24 hrs by broth micro dilution method; format: functional; conditions: time 20-24 hrs
[14] = Ratio of MBC for bactericidal activity against Staphylococcus aureus ATCC 43300 to MIC for antibacterial activity against Staphylococcus aureus ATCC 43300; format: functional
[15] = system: Staphylococcus epidermidis; assay: Antibacterial activity against Staphylococcus epidermidis ATCC 12228 assessed as inhibition of bacterial growth incubated for 20 to 24 hrs by broth micro dilution method; format: functional; conditions: time 20-24 hrs
Staphylococcus aureus [16] = assay: Antibacterial activity against Staphylococcus aureus ATCC 29213 assessed as inhibition of bacterial growth incubated for 20 to 24 hrs by broth micro dilution method; format: functional; conditions: time 20-24 hrs
[17] = Cytotoxicity against mouse L929 cells incubated for 48 hrs by MTT assay; format: toxicity, cell-based
[18] = Ratio of MBC for bactericidal activity against Bacillus subtilis CMCC (B) 63501 to MIC for antibacterial activity against Bacillus subtilis CMCC (B) 63501; format: functional
[19] = biological target: T1, Cell division protein FtsZ (Staphylococcus aureus); assay: Binding affinity to Staphylococcus aureus FtsZ assessed as equilibrium binding constant by isothermal titration calorimetry
[20] = biological target: T1, Cell division protein FtsZ (Staphylococcus aureus); assay: Induction of Staphylococcus aureus FtsZ polymerization expressed in Escherichia coli BL21 (DE3) assessed as increase in absorbance at 2 to 8 ug/ml by microplate reader method; conditions: dose 2-8 µg/ml
Staphylococcus aureus [21] = assay: Antibacterial activity against methicillin-resistant Staphylococcus aureus ATCC BAA41 assessed as fractional inhibitory concentration index incubated for 24 hrs by checker board assay; format: functional
Staphylococcus aureus [22] = assay: Bactericidal activity against Staphylococcus aureus ATCC 29213 assessed as inhibition of bacterial growth incubated for 24 hrs by resazurin dye based microtiter plate assay; format: functional
Escherichia coli [23] = assay: Antibacterial activity against NDM-1 expressing Escherichia coli ATCC BAA2469 assessed as inhibition of bacterial growth incubated for 20 to 24 hrs by broth micro dilution method; format: functional; conditions: time 20-24 hrs
Staphylococcus aureus [24] = assay: Antibacterial activity against Staphylococcus aureus ATCC 29213 infected in HK-2 cells assessed as inhibition of bacterial growth incubated for 20 to 24 hrs by broth micro dilution method; format: functional; conditions: time 20-24 hrs
Staphylococcus aureus [25] = assay: Antibacterial activity against vancomycin-intermediate Staphylococcus aureus Mu50 assessed as inhibition of bacterial growth incubated for 20 to 24 hrs by broth micro dilution method; format: functional; conditions: time 20-24 hrs
Escherichia coli [26] = assay: Antibacterial activity against Escherichia coli ATCC 8739 assessed as inhibition of bacterial growth incubated for 20 to 24 hrs by broth micro dilution method; format: functional; conditions: time 20-24 hrs
Staphylococcus aureus [27] = assay: Bactericidal activity against Staphylococcus aureus ATCC 43300 assessed as inhibition of bacterial growth incubated for 24 hrs by resazurin dye based microtiter plate assay; format: functional
Bacillus subtilis [28] = assay: Induction of drug resistance against Bacillus subtilis CMCC (B) 63501 measured after 16 passages; format: functional; conditions: dose <= 64.0 µg/ml, time 30.0 min
[29] = biological target: T1, Cell division protein FtsZ (Staphylococcus aureus); assay: Induction of Staphylococcus aureus FtsZ polymerization expressed in Escherichia coli BL21 (DE3) assessed as increase in absorbance at 2 to 8 ug/ml in presence of GTP by microplate reader method; conditions: dose 2-8 µg/ml, DDE = dose-dependent effect
[30] = Ratio of MBC for bactericidal activity against Enterococcus faecium ATCC 700221 to MIC for antibacterial activity against Enterococcus faecium ATCC 700221; format: functional

Compound: CC1CCN(c2cc(/C=C/c3ccc(N(C)C)cc3)[n+](C)c3ccccc23)CC1.[I-]
- Activity [1]: 15.5%
- MIC (Escherichia coli [2]): 8 µg/mL
- Activity (Staphylococcus aureus [3]): 1000 CFU/ml
- Activity (Staphylococcus aureus [4]): 1000 CFU/ml
- MIC (Enterococcus faecium): 8 µg/mL
- Kd [5]: 3.84 µM
- Ratio [6]: >4
- Activity [7]: 28.4%
- Activity [8]: 41%
- MIC (Acinetobacter baumannii): > 64 µg/mL
- IC50 at 48 h [9]: 9.42 µg/mL
- MIC (Staphylococcus aureus [10]): 2 µg/mL
- MIC (Enterococcus faecalis): 2 µg/mL
- MIC (Pseudomonas aeruginosa): > 64 µg/mL
- MBC (Bacillus subtilis [11]): 4 µg/mL
- Activity [12]: 15.1%
- MIC (Staphylococcus aureus [13]): 0.5 µg/mL
- Ratio [14]: >4
- MIC [15]: 0.25 µg/mL
- MIC (Staphylococcus aureus [16]): 1 µg/mL
- IC50 at 48 h [17]: 12.8 µg/mL
- Ratio [18]: 1
- Kb [19]: 4.41 10^5/M
- Activity [20]: Active
- fractional inhibitory concentration index (FICI) (Staphylococcus aureus [21]): 0.3125
- MBC (Staphylococcus aureus [22]): 8 µg/mL
- MIC (Escherichia coli [23]): 64 µg/mL
- MIC (Staphylococcus aureus [24]): 1 µg/mL
- MIC (Staphylococcus aureus [25]): 1 µg/mL
- MIC (Escherichia coli [26]): 64 µg/mL
- MBC (Staphylococcus aureus [27]): 8 µg/mL
- Activity (Bacillus subtilis [28]): Active
- Activity [29]: Dde
- Ratio [30]: 4
